Reference: paper PMC12036875, “Mitochondria-targeting natural product rhein conjugated with dichloroacetate as the dual inhibitor of glycolysis and oxidative phosphorylation to off energize cancer cells and induce ROS storm” (Theranostics, 2025)

Assays:
[1] = test system: 4T1 cells; experiment: Cell apoptosis assay (Annexin V-Alexa Fluor 647/PI flow cytometry); assay type: cell-based, Mouse; conditions: 6.25 μM, 24 h
Procedure: Correspondingly, the fall of intracellular ATP amount and the release of Cyt C directly drove cells into apoptosis. Flow cytometry apoptosis assay was conducted on the 4T1 cells after culture with different drugs at 6.25 μM for 24 h. The treated cells were stained with Annexin V-Alexa Flour 647 and PI. […] Since the antitumor effect could only be achieved when DCA was used in high dose, it is in agreement with reported literature. Similar to rhein group, the apoptosis rate in R + D group increased to approximately 12%.
Annexin V/PI staining was used to analyze the apoptosis of cancer cells. 4T1 cells were seeded into 6-well plates at a density of 10 × 10^4 cells per well. The cells were permitted to resume exponential growth for 24 h and treated with various drugs. After another 24 h incubation, the supernatant was collected in 1.5 mL tubes. The cells were treated with 100 μL of 0.25% Trypsin-EDTA for 2 min, subsequently 300 μL fresh medium were added which was combined with the corresponding supernatant. The cells were obtained following centrifugation at 434 G for 5 min and washed twice with PBS, and then resuspended in 500 μL of binding buffer (1 ×). The cells were stained with Annexin V/Alexa Fluor 647 and PI (20 μg/mL) for 5 min at room temperature in the dark. The fluorescence signal was immediately detected by flow cytometry and the data were analyzed by FlowJo software.

[2] = test system: mPTP in 4T1 cells; experiment: Mitochondrial permeability transition pore opening assay (Calcein AM); assay type: cell-based, Mouse; conditions: 6.25 μM, 24 h
Text: On the other hand, rhein could also disturb mitochondria, the camp of OXPHOS, to further prevent cancer cells from obtaining ATP by inducing pathological opening of mPTP [30]. We first detected mPTP on 4T1 cancer cells treated with indicated drugs according to the mPTP assay kit. The green fluorescence of Calcein AM in mitochondria would vanish when the quencher entered mitochondria through the opened mPTP channel. […] The sustained opening of mPTP along with the loss of Δψm. Thus, we further examined the Δψm of 4T1 cancer cells with JC-1 fluorescence dyes and tetramethylrhodamine, ethyl ester (TMRE) probe. The JC-1 dyes underwent a transition from aggregated red fluorescence to monomeric green fluorescence with mitochondrial depolarization in cells, and the increase of green/red fluorescence intensity ratio of JC-1 dyes indicated mitochondrial depolarization.
The opening status of the mPTP in 4T1 cells were tested with fluorescent probe Calcein AM. Briefly, 4T1 cells were seeded into 6-wells plates at a density of 10 × 10^4 cells per well and treated with various drugs at 6.25 μM for 24 h. After being washed twice with PBS, the cells were stained with Calcein AM staining solution (1 ×) and CoCl2 fluorescence quenching solution (1 ×) for 45 min at 37 °C in the dark. Next, they were further cultured with fresh medium at 37 °C for another 30 min in the dark. […]

[3] = test system: 4T1 tumor metastasis; experiment: Lung and liver metastasis (images, H&E); assay type: in vivo, Balb/c mice; conditions: 20 mg/kg oral, 24 days
Procedure: Correspondingly, the lung and liver tissues, which are the most common sites for primary tumor metastasis, were obtained and imaged, and then subjected to H&E staining for histopathological examination. […] The major organs (heart, liver, spleen, lung and kidney) were also excised for photographing and H&E staining. The blood biochemistry indexes, including ALT, AST, CREA and UREA were tested.

[4] = Pharmacokinetic study after oral administration; assay type: in vivo, Sprague-Dawley (SD) rats; conditions: SD rats, I.G. 20 mg/kg, mean ± S.D., n = 3
Procedure: HPLC was conducted to evaluate the absorption and distribution of Rhein-DCA conjugate in […] after oral administration. Rhein-DCA was orally administered to Sprague-Dawley (SD) rats at 20 mg/kg, and the concentration of the drug in the blood samples was serially measured at predefined time points.
HPLC was used to evaluate the absorption and distribution of Rhein-DCA in […] after oral administration. Rhein-DCA was orally administered to Sprague-Dawley (SD) rats at 20 mg/kg. and the blood samples were serially collected at predefined time points (0.5, 1.5, 2, 3, 4, 5, 6, 8, 10 and 24 h). Centrifuge the blood at 3000 G for 10 min to separate serum, and the serum was mixed with methanol (1:3, v/v), vortexed for 3 min, and centrifuged at 13000 G for 10 min. The supernatant was filtered through a 0.22 µm membrane for HPLC assay. Pharmacokinetic parameters were derived using DAS 2.0 software with non-compartmental analysis (NCA).

[5] = Tissue distribution after oral administration; assay type: in vivo; conditions: 4T1-bearing Balb/c mice, oral 20 mg/kg
Procedure: 4T1-bearing Balb/c mice were orally administered with Rhein-DCA (20 mg/kg), major organs (heart, liver, spleen, lung, kidney) and tumor tissues were harvested at 2, 6, and 24 h after administration. […] The Rhein-DCA conjugate could be absorbed rapidly and broadly distributed in major organs tissue after administration.
4T1-bearing Balb/c mice were orally administered with Rhein-DCA (20 mg/kg), major organs (heart, liver, spleen, lung, kidney) and tumor tissues were harvested and weighed at 2, 6, and 24 h after administration. Each organ was homogenized with sonication in ice bath (power 400 W, the duration of sonication is 3 s, the interval duration of 3 s, total sonication time of 20 min). Centrifuge the homogenate at 13000 G for 10 min at 4°C to obtain the supernatant for HPLC.

SMILES | apoptosis in comparison with control group, in words [1] | mPTP opening (Calcein AM green fluorescence) [2] | apoptosis rate [1] [%] | metastatic lesions in lungs and livers [3] | CL [4] [mL/min/kg] | Vd [4] [L/kg] | AUC(0-inf) ([4]; Sprague-Dawley, rat, serum, po) [ng·h/mL] | AUC(0-t) ([4]; Sprague-Dawley, rat, serum, po) [ng·h/mL] | Cmax ([4]; Sprague-Dawley, rat, serum, po) [ng/mL] | Tmax ([4]; Sprague-Dawley, rat, serum, po) [h] | half-life ([4]; Sprague-Dawley, rat, serum, po) [h] | intra-tumoral retention [5] | systemic clearance from major organs by 24 h [5] | Tmax ([5]; mouse, tumor, sampled at 2, 6, 24 h, read-out: time of peak concentration in tumors) [h]
O=C(O)C(Cl)Cl [DCA, Dichloroacetate] | no obvious changes | – | – | – | – | – | – | – | – | – | – | – | – | –
O=C(OCCOC(=O)C(Cl)Cl)c1cc(O)c2c(c1)C(=O)c1cccc(O)c1C2=O [Rhein-DCA] | – | faintest green fluorescence | 37.4 | significantly decreased the number and size of metastatic lesions | 37.5 | 17.11 ± 8.08 | 8980 | 8220 ± 330 | 2680 | 1.5 | 5.54 | remaining quantifiable up to 24 h | extremely completed | 6
